Measurements: ChEMBL document CHEMBL5303573, “Mapping human microbiome drug metabolism by gut bacteria and their genes” (Nature, 2019)

Legend:
[1] = The drug is tested on Bacteroides sp. WH2 strain: WH2 for biotransformation. The drug concentrations were measured before and after a 12-h incubation by liquid-chromatography-coupled mass spectrometry (LC–MS); details: bacteroides sp. wh2, 12 h, 2 µM
[2] = bifidobacterium adolescentis, 12 h, 2 µM
Description: The drug is tested on Bifidobacterium adolescentis strain: ATCC 15703 for biotransformation. The drug concentrations were measured before and after a 12-h incubation by liquid-chromatography-coupled mass spectrometry (LC–MS)

[3] = The drug is tested on Dorea formicigenerans strain: ATCC27755 for biotransformation. The drug concentrations were measured before and after a 12-h incubation by liquid-chromatography-coupled mass spectrometry (LC–MS); details: 2 µM
[4] = The drug is tested on Anaerotruncus colihominis strain: DSM17241 for biotransformation. The drug concentrations were measured before and after a 12-h incubation by liquid-chromatography-coupled mass spectrometry (LC–MS); details: 2 µM
[5] = The drug is tested on Bacteroides dorei strain: DSM17855 for biotransformation. The drug concentrations were measured before and after a 12-h incubation by liquid-chromatography-coupled mass spectrometry (LC–MS); details: phocaeicola dorei, 2 µM
[6] = The drug is tested on Bacteroides caccae strain: ATCC43185 for biotransformation. The drug concentrations were measured before and after a 12-h incubation by liquid-chromatography-coupled mass spectrometry (LC–MS); details: 2 µM
[7] = bacteroides thetaiotaomicron, 12 h, 2 µM
Description: The drug is tested on Bacteroides thetaiotaomicron strain: 7330 for biotransformation. The drug concentrations were measured before and after a 12-h incubation by liquid-chromatography-coupled mass spectrometry (LC–MS)

[8] = akkermansia muciniphila, 12 h, 2 µM
Description: The drug is tested on Akkermansia muciniphila strain: ATCC BAA-835 for biotransformation. The drug concentrations were measured before and after a 12-h incubation by liquid-chromatography-coupled mass spectrometry (LC–MS)

[9] = The drug is tested on Eubacterium ventriosum strain: ATCC27560 for biotransformation. The drug concentrations were measured before and after a 12-h incubation by liquid-chromatography-coupled mass spectrometry (LC–MS); format: ADME; design: dose 2 uM, timepoint 0 vs 12 hours; details: 2 µM
[10] = The drug is tested on Bacteroides finegoldii strain: DSM17565 for biotransformation. The drug concentrations were measured before and after a 12-h incubation by liquid-chromatography-coupled mass spectrometry (LC–MS); details: 2 µM
[11] = The drug is tested on Bifidobacterium breve strain: DSM20213 for biotransformation. The drug concentrations were measured before and after a 12-h incubation by liquid-chromatography-coupled mass spectrometry (LC–MS); details: 2 µM
[12] = The drug is tested on Collinsella aerofaciens strain: ATCC25986 for biotransformation. The drug concentrations were measured before and after a 12-h incubation by liquid-chromatography-coupled mass spectrometry (LC–MS); details: 2 µM
[13] = roseburia intestinalis, 12 h, 2 µM
Description: The drug is tested on Roseburia intestinalis strain: L1-82 for biotransformation. The drug concentrations were measured before and after a 12-h incubation by liquid-chromatography-coupled mass spectrometry (LC–MS)

[14] = bacteroides fragilis, 12 h, 2 µM
Description: The drug is tested on Bacteroides fragilis strain: 3397 (T10) for biotransformation. The drug concentrations were measured before and after a 12-h incubation by liquid-chromatography-coupled mass spectrometry (LC–MS)

[15] = The drug is tested on Ruminococcus lactaris strain: ATCC29176 for biotransformation. The drug concentrations were measured before and after a 12-h incubation by liquid-chromatography-coupled mass spectrometry (LC–MS); details: 2 µM
[16] = bacteroides intestinalis, 12 h, 2 µM
Description: The drug is tested on Bacteroides intestinalis strain: DSM17393 for biotransformation. The drug concentrations were measured before and after a 12-h incubation by liquid-chromatography-coupled mass spectrometry (LC–MS)

[17] = parabacteroides distasonis, 12 h, 2 µM
Description: The drug is tested on Parabacteroides distasonis strain: ATCC8503 for biotransformation. The drug concentrations were measured before and after a 12-h incubation by liquid-chromatography-coupled mass spectrometry (LC–MS)

[18] = The drug is tested on Ruminococcus torques strain: ATCC27756 for biotransformation. The drug concentrations were measured before and after a 12-h incubation by liquid-chromatography-coupled mass spectrometry (LC–MS); format: ADME; design: dose 2 uM, timepoint 0 vs 12 hours; details: 2 µM
[19] = The drug is tested on Escherichia coli strain: BW25113 for biotransformation. The drug concentrations were measured before and after a 12-h incubation by liquid-chromatography-coupled mass spectrometry (LC–MS); details: 2 µM
[20] = The drug is tested on Bacteroides coprophilus strain: DSM18228 for biotransformation. The drug concentrations were measured before and after a 12-h incubation by liquid-chromatography-coupled mass spectrometry (LC–MS); details: 2 µM

SMILES	Bacterial Biotransformation [1]	Bacterial Biotransformation [2]	Bacterial Biotransformation [3]	Bacterial Biotransformation [4]	Bacterial Biotransformation [5]	Bacterial Biotransformation [6]	Bacterial Biotransformation [7]	Bacterial Biotransformation [8]	Bacterial Biotransformation [9]	Bacterial Biotransformation [10]	Bacterial Biotransformation [11]	Bacterial Biotransformation [12]	Bacterial Biotransformation [13]	Bacterial Biotransformation [14]	Bacterial Biotransformation [15]	Bacterial Biotransformation [16]	Bacterial Biotransformation [17]	Bacterial Biotransformation [18]	Bacterial Biotransformation [19]	Bacterial Biotransformation [20]
CCOc1ccc2nc(S(N)(=O)=O)sc2c1 [ETHOXZOLAMIDE]	Compound metabolized	Compound metabolized	Compound metabolized	Compound metabolized	Compound NOT metabolized	Compound metabolized	Compound metabolized	Compound metabolized	Compound metabolized	Compound metabolized	Compound metabolized	Compound metabolized	Compound metabolized	Compound metabolized	Compound metabolized	Compound metabolized	Compound metabolized	Compound metabolized	Compound metabolized	Compound metabolized
CNCCC(Oc1ccc(C(F)(F)F)cc1)c1ccccc1 (stereo not given) [FLUOXETINE]	Compound metabolized	Compound metabolized	Compound metabolized	Compound NOT metabolized	Compound metabolized	Compound metabolized	Compound metabolized	Compound metabolized	Compound metabolized	Compound NOT metabolized	Compound metabolized	Compound metabolized	Compound metabolized	Compound metabolized	Compound metabolized	Compound metabolized	Compound metabolized	Compound NOT metabolized	Compound metabolized	Compound metabolized
CC(Oc1c(Cl)cccc1Cl)C1=NCCN1 (stereo not given) [LOFEXIDINE]	Compound metabolized	Compound metabolized	Compound metabolized	Compound metabolized	Compound metabolized	Compound metabolized	Compound metabolized	Compound metabolized	Compound NOT metabolized	Compound metabolized	Compound metabolized	Compound metabolized	Compound metabolized	Compound metabolized	Compound metabolized	Compound metabolized	Compound NOT metabolized	Compound metabolized	Compound metabolized	Compound metabolized
CC[C@@H](CO)NC(=O)[C@@H]1C=C2c3cccc4c3c(cn4C)C[C@H]2N(C)C1.O=C(O)/C=C\C(=O)O [METHYSERGIDE MALEATE]	Compound metabolized	Compound metabolized	Compound metabolized	Compound metabolized	Compound metabolized	Compound metabolized	Compound metabolized	Compound metabolized	Compound metabolized	Compound metabolized	Compound metabolized	Compound metabolized	Compound metabolized	Compound metabolized	Compound metabolized	Compound metabolized	Compound metabolized	Compound metabolized	Compound metabolized	Compound metabolized
CC#C[C@]1(O)CC[C@H]2[C@@H]3CCC4=CC(=O)CCC4=C3[C@@H](c3ccc(N(C)C)cc3)C[C@@]21C [MIFEPRISTONE]	Compound NOT metabolized	Compound NOT metabolized	Compound NOT metabolized	Compound NOT metabolized	Compound metabolized	Compound NOT metabolized	Compound NOT metabolized	Compound NOT metabolized	Compound NOT metabolized	Compound NOT metabolized	Compound metabolized	Compound NOT metabolized	Compound NOT metabolized	Compound NOT metabolized	Compound NOT metabolized	Compound NOT metabolized	Compound NOT metabolized	Compound NOT metabolized	Compound NOT metabolized	Compound NOT metabolized
COc1c(C)c2c(c(O)c1C/C=C(\C)CCC(=O)OCCN1CCOCC1)C(=O)OC2 [MYCOPHENOLATE MOFETIL]	Compound metabolized	Compound metabolized	Compound metabolized	Compound metabolized	Compound metabolized	Compound metabolized	Compound metabolized	Compound metabolized	Compound metabolized	Compound metabolized	Compound metabolized	Compound metabolized	Compound metabolized	Compound metabolized	Compound metabolized	Compound metabolized	Compound metabolized	Compound metabolized	Compound metabolized	Compound metabolized
CCOC(=O)C1=C(C)NC(C)=C(C(=O)OC)C1c1cccc([N+](=O)[O-])c1 (stereo not given) [NITRENDIPINE]	Compound metabolized	Compound metabolized	Compound metabolized	Compound metabolized	Compound metabolized	Compound metabolized	Compound metabolized	Compound metabolized	Compound metabolized	Compound metabolized	Compound metabolized	Compound metabolized	Compound metabolized	Compound metabolized	Compound metabolized	Compound metabolized	Compound metabolized	Compound metabolized	Compound metabolized	Compound NOT metabolized
COc1ccc2c(c1OC)C(=O)O[C@@H]2[C@H]1c2c(cc3c(c2OC)OCO3)CCN1C [NOSCAPINE]	Compound NOT metabolized	Compound NOT metabolized	Compound metabolized	Compound metabolized	Compound metabolized	Compound NOT metabolized	Compound metabolized	Compound metabolized	Compound metabolized	Compound metabolized	Compound metabolized	Compound metabolized	Compound metabolized	Compound NOT metabolized	Compound metabolized	Compound metabolized	Compound metabolized	Compound metabolized	Compound NOT metabolized	Compound metabolized
